Where “and” joins values, the source holds several entries; their conditions need not be identical. Equal values may be shown once.

The source of these data is PMC6983093, “Ketoprofen-Based Ionic Liquids: Synthesis and Interactions with Bovine Serum Albumin” (Molecules, 2019).

One series concerns the target cytochrome C oxidase. Also noted: method as in doi:10.1016/j.molliq.2017.02.027. The following applies: cited from earlier work; for IC50: read-out: IC50 for the inhibition of cytochrome C oxidase.
In series [1] the target is T1, bovine serum albumin (BSA) (Bos taurus, UniProt P02769).
T1 construct: Bovine serum albumin (BSA), heat shock fraction, protease-free, fatty acid-free, essentially globulin free (pH 7, ≥98%); purchased Merck (Darmstadt, Germany)
Nature of the series: BSA fluorescence quenching (Stern–Volmer and double-log analysis). The following applies: 25 °C; for bimolecular quenching rate constant kq: pH 7.4, τo taken as 10^−8 s; for Binding constant KA / Stern–Volmer quenching constant Ksv: sodium phosphate buffer pH 7.4, 50 mM; for Stern–Volmer quenching constant Ksv: BSA 2 μM, λex 280 nm. It counts as binding. The procedure: The fluorescence quenching data are analyzed according to the Stern–Volmer Equation (1):(1) Fo/F=1+kqτqo[Q]=1+Ksv[Q], where Fo and F is the fluorescence peak intensities in the absence and in the presence of quencher.
The maximum scatter quenching constant Kq that is due to collisions between biomolecules is 2 × 10^10 L mol^−1 s^−1 [33].
The dependence of log(Fo−F/F) vs. log[Q] is linear with a slope equal to the number of the binding sites, and y-intercept corresponds to the log of the effective binding constant (KA).
All fluorescence measurements were carried out on Perkin Elmer LS 55 fluorimeter equipped with a 1.0 cm quartz cuvette.
(§1) BSA-ILs incubated 1 hour prior to the measurements.

For series [2], the target named is T1, bovine serum albumin (BSA). As to the kind of experiment: ATR-FTIR analysis of the Amide I band of BSA-compound complexes (secondary structure). The conditions noted are these: for α-Helices, Relative Area of Amide I band component: BSA 0.3 mM : compound 1:1, phosphate buffer pH 7.4, 50 mM, native BSA 47.3; for Unordered Structures, Relative Area of Amide I band component: '-' = no band, native BSA 21. The method, then: In the spectra of proteins, the Amide I band region (1700–1600 cm^−1) is mainly due to the starching vibrations of the carbonyl group (80%) and is highly sensitive to the changes in the geometry and the environment of the amide bonds. […] The band assignments were done according to Jackson and Mantsch and the analysis of the structure was taken into consideration the data on the BSA available in the literature.
The spectra of the proteins were referenced to the respective spectra of 50 mM sodium phosphate buffer, pH 7.4 containing the same amount of the corresponding IL.
Then the ATR-FTIR spectra were Fourier deconvoluted by Opus software version 5.5 using a bandwidth of 12 cm^−1, 2.9 resolution enhancement factor, and Lorentzian lineshape. Second derivative spectra were obtained using the Savitzky-Golay algorithm based on 17 smoothing points. Then, the relative contribution of each band component of the Amide I band was determined by curve fitting following the procedure of the OPUS program. In the fitting, the number of components and the initial values of their position were set as determined from the second derivative spectra. The initial bandwidth of all components was set to 12 cm^−1 and the components were approximated by mixed Lorentzian/Gaussian functions. The curve-fitting was performed according to the Local Least Squares algorithm. The assignment of the Amide I band positions to the secondary structure was done according to [36].

Series [3] deals with T1, bovine serum albumin (BSA). As to the kind of experiment: Steady-state FRET between BSA fluorophores and compound. The series is classed as binding. The conditions noted are these: [BSA] = [Quencher] = 2 μM; T = 25 °C.
Excerpt: The following equations are used to estimate the steady-state FRET parameters:(3) E=1−F/Fo=Ro^6/Ro^6+ro^6, (4) Ro^6=8.8x10^−25K^2n^−4ϕJ, (5) J=∑F(λ)ε(λ)λ^4Δλ/∑F(λ)Δλ, where E is energy transfer efficacy, Ro is the characteristic distance called Förster distance or critical distance at which the energy transfer efficacy is 50%, ro is the distance between the quencher (drug) and the BSA fluorophores. […] F(λ) is the fluorescence intensity of the fluorescence of the donor, ε(λ) (L mol^−1 cm^−1) is the molar absorption coefficient of the acceptor at wavelength λ.
as §1

Series [4] is described as follows: Thermogravimetric analysis (thermal stability, TG). The following applies: heating 10 °C min^−1, air atmosphere.
The mark [5] stands for this setting: BSA:compound 1:1, pH 7.4, one value per band, in the order of the band positions of the column to the left.

T1 sequence (P02769 25-607): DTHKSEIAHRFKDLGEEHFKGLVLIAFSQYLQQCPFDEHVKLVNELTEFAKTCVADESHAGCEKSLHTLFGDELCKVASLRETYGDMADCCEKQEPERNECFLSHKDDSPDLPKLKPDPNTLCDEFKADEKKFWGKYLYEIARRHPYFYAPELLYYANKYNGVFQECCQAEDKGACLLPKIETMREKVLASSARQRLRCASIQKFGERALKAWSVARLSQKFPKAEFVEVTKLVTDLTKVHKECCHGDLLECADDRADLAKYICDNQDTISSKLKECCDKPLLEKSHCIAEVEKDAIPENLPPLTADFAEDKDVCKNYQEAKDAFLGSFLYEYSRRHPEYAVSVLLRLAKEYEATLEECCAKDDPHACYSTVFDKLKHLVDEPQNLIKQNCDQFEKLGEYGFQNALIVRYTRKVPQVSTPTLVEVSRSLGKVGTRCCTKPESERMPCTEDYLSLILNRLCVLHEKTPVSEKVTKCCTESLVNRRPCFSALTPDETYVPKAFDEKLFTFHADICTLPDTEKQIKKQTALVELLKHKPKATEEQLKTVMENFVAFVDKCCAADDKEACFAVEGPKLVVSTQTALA

One may read the IC50 as the midpoint of a concentration-inhibition curve. `CC(C(=O)O)c1cccc(C(=O)c2ccccc2)c1` (stereo not shown) [cholinium ketoprofenate]: the half-inhibitory concentration (IC50) on cytochrome C oxidase is around 21.3 mM.

Consider `COc1ccc2cc(C(C)C(=O)[O-])ccc2c1.C[N+](C)(C)CCO` (stereo not shown) [cholinium naproxenate], for which the “Toxicity relative to the parent sodium salt” value with cytochrome C oxidase was “more toxic than its parent sodium salt”.

As for `CC(C(=O)O)c1cccc(C(=O)c2ccccc2)c1` (stereo not shown) [sodium ketoprofenate], the half-maximal inhibitory concentration (IC50) at cytochrome C oxidase was around 0.0006 mM.

For “L-Leucine Ethyl Ester Ketoprofenate [[L-LeuOEt][KETO]]”, in series [1], the “bimolecular quenching rate constant kq” value is given as 8.3 10^12, L mol^−1 s^−1; the “Binding constant KA” value is listed as 7.1 10^5, L mol^−1; the “Stern–Volmer quenching constant Ksv” value is 8.3 10^4, L mol^−1. The “α-Helices, Relative Area of Amide I band component” value (shortened to “α-Helices, Relative Area”) in series [2] is on record as 36.7%. In series [2] (BSA:compound 1:1, pH 7.4), the “Effect on the secondary structure of BSA (in words)” value is recorded as “very close to the native BSA conformation” and the “Unordered Structures, Relative Area of Amide I band component” value (“Unordered Structures, Relative Area” below) is reported as 21.5%. Also, the “β-Structures, Relative Area of Amide I band components” value in series [2] (setting [5]) was 13.5% and 13.7%. In series [3], the “EFRET (energy transfer efficacy)” value came out at 0.0246; the “Ro (Förster critical distance)” value amounted to 3.30 nm; the “ro (distance between quencher and BSA fluorophores)” value is 6.14 nm.

With “L-Valine Butyl Ester Ketoprofenate [[L-ValOBu][KETO]]”, in series [1], the “bimolecular quenching rate constant kq” value was 7.3 10^12, L mol^−1 s^−1; the “Binding constant KA” value was 7.5 10^5, L mol^−1; the “Stern–Volmer quenching constant Ksv” value is 7.3 10^4, L mol^−1. The “α-Helices, Relative Area” value in series [2] turned out to be 27.8%. Besides, the “Tonset (onset of the thermal degradation)” value (“Tonset” below) in series [4] was 101.1 °C. For the same molecule, in series [3], the “EFRET (energy transfer efficacy)” value was 0.0520; the “Ro (Förster critical distance)” value worked out at 3.32 nm; the “ro (distance between quencher and BSA fluorophores)” value worked out at 5.48 nm.

As for “L-Valine Ethyl Ester Ketoprofenate [[L-ValOEt][KETO]]”, in series [1], the “bimolecular quenching rate constant kq” value was 6.3 10^12, L mol^−1 s^−1; the “Binding constant KA” value is 8.2 10^5, L mol^−1; the “Stern–Volmer quenching constant Ksv” value is on record as 6.3 10^4, L mol^−1. In addition, the “α-Helices, Relative Area” value in series [2] is 28.8%. Further, the “Unordered Structures, Relative Area” value in series [2] (BSA:compound 1:1, pH 7.4) turned out to be 17.25%. Moreover, the “Tonset” value in series [4] was 100.4 °C. In series [3], the “EFRET (energy transfer efficacy)” value turned out to be 0.1830; the “Ro (Förster critical distance)” value is given as 3.43 nm; the “ro (distance between quencher and BSA fluorophores)” value stood at 4.68 nm.

“L-Valine Isopropyl Ester Ketoprofenate [[L-ValOiPr][KETO]]”: in series [1], the “bimolecular quenching rate constant kq” value was 7.1 10^12, L mol^−1 s^−1; the “Binding constant KA” value is reported as 1.5 10^5, L mol^−1; the “Stern–Volmer quenching constant Ksv” value is listed as 7.1 10^4, L mol^−1. In series [2], the “α-Helices, Relative Area” value stood at 23.8%. In series [2] (BSA:compound 1:1, pH 7.4), the “Effect on the secondary structure of BSA (in words)” value is recorded as “most dramatic changes in the secondary structure” and the “Unordered Structures, Relative Area” value was determined as 11.7%. Moreover, in series [3], the “EFRET (energy transfer efficacy)” value came out at 0.0625; the “Ro (Förster critical distance)” value is on record as 3.38 nm; the “ro (distance between quencher and BSA fluorophores)” value is reported as 5.42 nm.

Regarding “L-Valine Propyl Ester Ketoprofenate [[L-ValOPr][KETO]]”, in series [1], the “bimolecular quenching rate constant kq” value is 7.1 10^12, L mol^−1 s^−1; the “Binding constant KA” value was 2.3 10^5, L mol^−1; the “Stern–Volmer quenching constant Ksv” value is 7.1 10^4, L mol^−1. Moreover, the “α-Helices, Relative Area” value in series [2] was determined as 26.9%. The “Unordered Structures, Relative Area” value in series [2] (BSA:compound 1:1, pH 7.4) is on record as 29.2%. Further, in series [2] (setting [5]), the “Aromatic Residues/Aggregated Strands/Antiparallel β-Sheets, Relative Area of Amide I band components” value was found to be 11.0%. In addition, the “Tonset” value in series [4] is 52.3 °C. Moreover, in series [3], the “EFRET (energy transfer efficacy)” value was 0.1770; the “Ro (Förster critical distance)” value turned out to be 3.46 nm; the “ro (distance between quencher and BSA fluorophores)” value is 4.74 nm.
